The target in series [1] is T1, Tyrosine-protein kinase JAK3 (Homo sapiens, UniProt P52333).
T1 sequence (P52333 whole entry): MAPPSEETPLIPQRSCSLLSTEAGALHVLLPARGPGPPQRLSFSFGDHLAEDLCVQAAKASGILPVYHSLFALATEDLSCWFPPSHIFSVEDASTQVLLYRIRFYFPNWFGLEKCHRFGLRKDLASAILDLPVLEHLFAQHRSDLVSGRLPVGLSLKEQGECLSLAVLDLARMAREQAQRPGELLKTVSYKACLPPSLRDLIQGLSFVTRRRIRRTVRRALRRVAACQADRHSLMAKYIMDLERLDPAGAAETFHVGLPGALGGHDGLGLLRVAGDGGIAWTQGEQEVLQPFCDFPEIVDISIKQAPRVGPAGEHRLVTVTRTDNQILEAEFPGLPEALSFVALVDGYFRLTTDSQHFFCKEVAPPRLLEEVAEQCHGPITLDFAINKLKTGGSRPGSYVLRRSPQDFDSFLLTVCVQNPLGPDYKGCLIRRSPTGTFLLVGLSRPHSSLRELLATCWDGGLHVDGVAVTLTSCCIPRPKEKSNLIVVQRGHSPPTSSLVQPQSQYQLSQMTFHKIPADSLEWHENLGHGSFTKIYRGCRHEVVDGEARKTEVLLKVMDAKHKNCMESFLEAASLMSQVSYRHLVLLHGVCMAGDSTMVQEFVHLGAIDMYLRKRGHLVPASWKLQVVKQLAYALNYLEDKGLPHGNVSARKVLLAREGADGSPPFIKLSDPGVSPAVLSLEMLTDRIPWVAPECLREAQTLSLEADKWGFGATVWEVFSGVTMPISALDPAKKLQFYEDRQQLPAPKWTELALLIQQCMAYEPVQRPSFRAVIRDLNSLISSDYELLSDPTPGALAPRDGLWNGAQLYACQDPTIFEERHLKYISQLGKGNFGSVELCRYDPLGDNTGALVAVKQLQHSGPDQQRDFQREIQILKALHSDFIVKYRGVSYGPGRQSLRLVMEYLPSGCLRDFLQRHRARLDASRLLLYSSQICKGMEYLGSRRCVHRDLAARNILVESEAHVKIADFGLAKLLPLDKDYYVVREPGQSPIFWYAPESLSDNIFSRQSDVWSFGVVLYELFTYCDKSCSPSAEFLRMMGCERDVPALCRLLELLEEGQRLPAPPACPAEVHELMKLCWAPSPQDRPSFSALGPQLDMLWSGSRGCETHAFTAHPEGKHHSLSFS
Put plainly: Inhibition of JAK3 (unknown origin) by FRET-based Z'-Lyte assay.

The target in series [2] is Epithelial discoidin domain-containing receptor 1 (Homo sapiens, UniProt Q08345). Nature of the series: Inhibition of DDR1 (unknown origin) by lanthascreen eu kinase activity assay.
The subject of series [3] is HL-60. Put plainly: Cytotoxicity against human HL-60 cells assessed as cell growth inhibition measured after 24 hrs by MTT assay. The format is functional, cell-based. Particulars: HL-60, 24 h. For orientation: Formazan colour is commonly taken as a measure of viable cells.
In series [4] the test system is THP-1. Nature of the series: Cytotoxicity against human THP-1 cells assessed as cell growth inhibition measured after 24 hrs by MTT assay. The format is functional, cell-based. Conditions: THP-1, 24 h.
The nature of series [5]: Inhibition of rat intestinal maltase.
The nature of series [6]: Inhibition of rat intestinal sucrase.
A short description of series [7]: Inhibition of rat intestinal alpha-glucosidase.
The test system of series [8] is KB. Put plainly: Cytotoxicity against human KB cells assessed as cell growth inhibition by colorimetric method. The format is functional, cell-based.
For series [9], the system named is NCI-H187. Nature of the series: Cytotoxicity against human NCI-H187 cells assessed as cell growth inhibition by colorimetric method. The format is functional, cell-based.
In series [10] the test system is BC1 cell line. Nature of the series: Cytotoxicity against human BC1 cells assessed as cell growth inhibition by colorimetric method. The series is classed as functional, cell-based.
Series [11] concerns SW480. Nature of the series: Cytotoxicity against human SW480 cells assessed as cell growth inhibition measured after 48 hrs by CCK-8 assay. The format is functional, cell-based. Particulars: SW480, 48 h.
Series [12] deals with HeLa. Put plainly: Cytotoxicity against human HeLa cells assessed as cell growth inhibition measured after 48 hrs by CCK-8 assay. The format is functional, cell-based.
The test system of series [13] is Fusarium graminearum. Put plainly: Antifungal activity Fusarium graminearum assessed as inhibition of fungal growth by microbroth dilution method. The format is functional.
Series [14] has as its system Salmonella typhi. Put plainly: Antibacterial activity against Salmonella typhi assessed as reduction in microbial growth by modified broth dilution test. The series is classed as functional, Salmonella enterica subsp. enterica serovar Typhi. Particulars: Salmonella enterica. Background: Dilution methods test growth across graded concentrations, often in twofold steps.

Series [15] is described as follows: Cytotoxicity against rat IEC-6 cells assessed as cell growth inhibition by WST-1 assay. The series is classed as toxicity, cell-based.
Series [16] concerns HeLa. Put plainly: Cytotoxicity against human HeLa cells assessed as cell growth inhibition measured after 48 hrs by MTT assay. The series is classed as functional, cell-based.
The test system of series [17] is SGC-7901. Nature of the series: Cytotoxicity against human SGC-7901 cells assessed as cell growth inhibition measured after 48 hrs by MTT assay. The format is functional, cell-based. Particulars: SGC-7901, 48 h.
Series [18] has as its system Human immunodeficiency virus 1. Put plainly: Antiviral activity against HIV1 VSV-G pseudotyped virus infected in human SUP-T1 cells infected using supernatant of virus-producing 293T cells incubated for 48 hrs by firefly luciferase assay. Particulars: Human immunodeficiency virus 1, SUP-T1, 48 h. The format is functional, organism-based.
Series [19] has as its target T2, Prostaglandin G/H synthase 2 (Homo sapiens, UniProt P35354).
T2 sequence (P35354 whole entry): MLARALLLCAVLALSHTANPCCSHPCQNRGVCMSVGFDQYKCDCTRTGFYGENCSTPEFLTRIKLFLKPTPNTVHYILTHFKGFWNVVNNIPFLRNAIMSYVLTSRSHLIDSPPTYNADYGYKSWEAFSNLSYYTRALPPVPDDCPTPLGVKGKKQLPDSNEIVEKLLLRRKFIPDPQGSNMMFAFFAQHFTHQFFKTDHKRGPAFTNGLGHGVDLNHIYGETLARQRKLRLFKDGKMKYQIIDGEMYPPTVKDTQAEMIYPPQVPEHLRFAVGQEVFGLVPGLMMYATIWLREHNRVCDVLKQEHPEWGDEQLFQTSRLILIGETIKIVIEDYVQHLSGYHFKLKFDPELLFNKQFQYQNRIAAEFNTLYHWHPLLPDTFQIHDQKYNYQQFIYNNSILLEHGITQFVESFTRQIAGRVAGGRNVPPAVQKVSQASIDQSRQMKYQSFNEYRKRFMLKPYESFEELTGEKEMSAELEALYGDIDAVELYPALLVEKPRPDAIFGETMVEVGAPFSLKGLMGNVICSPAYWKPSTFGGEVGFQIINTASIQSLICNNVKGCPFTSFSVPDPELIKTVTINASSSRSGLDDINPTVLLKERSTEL
Put plainly: Inhibition of human recombinant COX-2 pretreated with compound for 10 mins followed by substrate addition for 10 mins by fluorescent inhibitor screening assay.

For series [20], the system named is A549. Put plainly: Cytotoxicity against human A549 cells assessed as cell growth inhibition by CCK-8 method. The format is functional, cell-based.
Series [21] deals with MCF7. Nature of the series: Antiproliferative activity against human MCF7 cells assessed as cell growth inhibition. The series is classed as functional, cell-based.
The subject of series [22] is SF-268. Put plainly: Antiproliferative activity against human SF-268 cells assessed as cell growth inhibition. The series is classed as functional, cell-based.
Series [23] relates to A549. Put plainly: Antiproliferative activity against human A549 cells assessed as cell growth inhibition. The format is functional, cell-based.
Series [24] relates to HepG2. Nature of the series: Antiproliferative activity against human HepG2 cells assessed as cell growth inhibition. The series is classed as functional, cell-based.

In brackets after ≈: the same amount, converted by molar mass.

For orientation: IC50 means the concentration that inhibits the measured activity by half. The term MIC denotes the smallest concentration in the dilution series that meets the test's criterion for growth inhibition.

Sequence of Epithelial discoidin domain-containing receptor 1 (Q08345 whole entry, the tested form may be a part): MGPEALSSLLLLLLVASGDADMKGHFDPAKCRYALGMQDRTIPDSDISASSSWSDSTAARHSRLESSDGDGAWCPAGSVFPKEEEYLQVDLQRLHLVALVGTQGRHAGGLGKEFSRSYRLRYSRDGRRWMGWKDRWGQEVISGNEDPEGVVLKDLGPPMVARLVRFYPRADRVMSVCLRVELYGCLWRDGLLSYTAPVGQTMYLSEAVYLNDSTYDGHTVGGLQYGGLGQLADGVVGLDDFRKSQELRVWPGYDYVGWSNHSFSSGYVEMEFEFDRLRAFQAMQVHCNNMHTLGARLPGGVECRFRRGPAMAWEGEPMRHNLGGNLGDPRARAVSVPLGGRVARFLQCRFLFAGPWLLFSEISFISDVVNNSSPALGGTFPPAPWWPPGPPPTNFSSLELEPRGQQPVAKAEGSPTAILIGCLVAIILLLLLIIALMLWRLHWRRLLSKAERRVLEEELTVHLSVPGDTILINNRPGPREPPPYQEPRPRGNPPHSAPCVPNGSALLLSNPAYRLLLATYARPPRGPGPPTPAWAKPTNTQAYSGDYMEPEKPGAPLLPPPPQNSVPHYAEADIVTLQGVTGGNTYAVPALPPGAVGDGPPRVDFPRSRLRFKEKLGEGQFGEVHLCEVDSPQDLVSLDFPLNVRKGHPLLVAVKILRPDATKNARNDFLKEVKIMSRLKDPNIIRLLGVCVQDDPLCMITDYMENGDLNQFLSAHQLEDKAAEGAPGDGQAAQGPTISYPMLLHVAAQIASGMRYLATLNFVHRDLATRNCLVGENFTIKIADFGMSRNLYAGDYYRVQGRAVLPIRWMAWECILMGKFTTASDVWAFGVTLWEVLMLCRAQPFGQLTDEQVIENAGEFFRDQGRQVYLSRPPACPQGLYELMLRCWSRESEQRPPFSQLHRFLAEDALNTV

On to `CO[C@H]1OC(=O)[C@@]2(CC(=O)c3cc(O)ccc3O)C[C@@H]3[C@@H](C/C=C(\CC(=O)c4cc(O)ccc4O)C(=O)O)C(C=O)=CO[C@@H]3[C@@]12C` (racemic), for which the concentration for half-maximal inhibition (IC50) in series [1] is under 10 µM; in series [2], 8.2 µM.

For the molecule `COC(=O)CC1=C(C)[C@@H]2C[C@@]3(C)C(=O)O[C@H]4O[C@@H](C)C(=O)[C@](C(=O)OC)([C@H]43)[C@@]2(C)CC=C1C(C)(C)OC`, the IC50 in series [3] worked out at 7.9 µM; in series [4], 11.3 µM.

Take `C/C(=C\CC/C(=C/Cc1cc(O)ccc1O)C(=O)O)CC[C@@H](O)C(C)(C)O`: the concentration for half-maximal inhibition (IC50) in [5] stood at 11.1 µM; in series [6], 14.6 µM; in [7], 18.1 µM.

As to `Cc1cc2c(c(=O)o1)C[C@H]1[C@]3(C)CC[C@H]4C(C)(C)[C@@H](O)CC[C@]4(C)[C@H]3CC[C@]1(C)O2`, the 50% inhibitory concentration (IC50) in series [8] was found to be 2.9 µg/mL (≈ 6.99 µM); in series [9], 9.8 µg/mL (≈ 23.6 µM); in [10] it was 8.7 µg/mL (≈ 21 µM).

For `C[C@]1(O)C=Cc2cc(C(=O)O)ccc2OC1`, the IC50 was 16.3 µM in [11] and 38.6 µM in [12].

For the molecule `Cc1oc(=O)c2c(c1C)O[C@]1(C)[C@H](O)[C@@H]3O[C@](O)(CC[C@H](C)[C@H]1C2)C(C)(C)C3=O`, the minimal inhibitory concentration (MIC) in [13] and in [14] was 12.5 µg/mL each time.

For `C=C1[C@@]2(C)C[C@H]3C(=C)[C@]4(C=CC(=O)OC4(C)C)CC[C@]3(C)[C@@]13C(=O)O[C@@H](C)[C@@]3(O)C2=O`, the IC50 in series [15] came out at 2.52 µg/mL (≈ 5.91 µM).

Take `COc1ccc(O)c2c1[C@@H]1C=C(CC/C=C(/C)C2)C(=O)O1`: the results for the IC50 in series [16] and in series [17] were 23.5 µM and 14.5 µM, respectively.

The molecule `C/C=C/C=C/C1=C(CO)[C@@H](O)[C@@H](O)[C@@H](CC=C(C)C)C1=O` yielded an IC50 in series [18] of 18 µM.

On to `CC(C)=CCC/C(C)=C/CCC1=C[C@]2(OC1=O)c1cc(O)ccc1OC(=O)[C@]2(CC/C=C(\C)CCC=C(C)C)CC(=O)c1cc(O)ccc1O` (racemic), for which the values for the half-maximal inhibitory concentration (IC50) in series [19] and in series [20] were 1.29 µM and 7.14 µM, respectively.

As for `COC(=O)/C=C1\O[C@@]2(C)C/C=C/C(C)(C)C[C@@H]3Cc4c(C)cc(=O)c(O)cc4O[C@]3(C)[C@H](O)C[C@@H]2C[C@@]12OC(=O)C=C2C`, the IC50 in series [21], in series [22], in series [23] and in series [24] was 0.5 µM throughout.

Source of the values: ChEMBL document CHEMBL5113368, “Meroterpenoids produced by fungi: Occurrence, structural diversity, biological activities, and their molecular targets” (Eur J Med Chem, 2021).
